Experimental data taken from the Kinase Knowledgebase extract (Sharma et al. 2016).

Legend:
CDK2 (Human) [1] = biological target: CDK2 (Human) (UniProt P24941); test: Enzyme Assay
CDK2 (Human) [2] = biological target: CDK2 (Human) (UniProt P24941); test: Enzyme Assay; remark: listed apart in the source

| Compound | IC50 (CDK2 (Human) [1]) | IC50 (CDK2 (Human) [2]) |
| --- | --- | --- |
| CC(C)n1cnc2c(NCc3ccccc3O)nc(NCCCO)nc21 | 1210 nM | 506 nM |
| CC(=O)O/N=C1/C(=C2/C(=O)Nc3cc(Br)ccc32)Nc2ccccc21 | 78300 nM | 787 nM |
| CCCCCCCCCCCCCCCCn1cc[n+](Cc2ccccc2)c1C | 3910 nM | 24500 nM |
| COc1cc(Nc2ncc3ccn(-c4cccc(CCC#N)c4)c3n2)cc(OC)c1OC | > 25000 nM | > 25000 nM |
| NC1=NC(=O)/C(=C2\CCNC(=O)c3[nH]c4ccccc4c32)N1 |  | 1280 nM |
| Cc1ccc([N+](=O)[O-])cc1S(=O)(=O)N(C)/N=C/c1cnc2ccc(Br)cn12 | 168 nM | 278 nM |
| O=C1Nc2ccccc2C1=C1Nc2ccccc2C1=NOCCC(O)CO (stereo not drawn) |  | 930 nM |
| N#CCCc1ccc2c(c1)-c1[nH]c3ccc([N+](=O)[O-])cc3c1CC(=O)N2 | 216 nM | 333 nM |
| O=C1NC(=O)c2c1c1c3ccccc3n3c1c1c2c2ccccc2n1C1CCC3O1 | 283 nM | 871 nM |
| Cn1cc(C2=C(c3cn(CCCSC(=N)N)c4ccccc34)C(=O)NC2=O)c2ccccc21 | 147 nM | 318 nM |
| O=C1Nc2ccc3ncsc3c2/C1=C/c1cnc[nH]1 | 94 nM | 135 nM |
| O=C1Nc2ccc(I)cc2/C1=C1/Nc2ccccc2/C1=N\O | 1520 nM | 379 nM |
| CC(C)[C@H](CO)Nc1nc(Nc2cccc(Cl)c2)c2ncn(C(C)C)c2n1 | 503 nM | 204 nM |
| CC(C)c1[nH]n(-c2c(Cl)cccc2Cl)c2nc(Cc3ccc(OCCO)cc3)nc(=O)c1-2 | 67 nM | 141 nM |
| CCN(CC)C(=O)c1ccc(Nc2nc(OCC3CCCCC3)c3[nH]cnc3n2)cc1 | 6470 nM | 4490 nM |
